In EP4768499A1, “MACROCYCLIC PEPTIDE COMPOUND HAVING CELL MEMBRANE PERMEABILITY AND METABOLIC STABILITY, AND LIBRARY CONTAINING SAME” (Chugai Seiyaku Kabushiki Kaisha, priority 2023, dated 2025):
Starred links: 1 amine or outer side, 2 acyl side, 3 side chain; linkers in the order of their positions; H or OH if unused. Positions of bridges follow the written chain, without caps; N, C: chain ends. Non-standard residues stand in square brackets, D forms with d. Residues, ends and D or L forms follow the SMILES beside them. *: point of attachment. NMedβ3hAla = C[C@H](CC(=O)[*:2])N(C)[*:1]; NMeF = CN[C@@H](Cc1ccccc1)C(=O)O; NMeGABA = CN(CCCC(=O)[*:2])[*:1]; NMeI = CC[C@H](C)[C@H](NC)C(=O)O; NMeT = CN[C@H](C(=O)O)[C@@H](C)O; hPhe = N[C@@H](CCc1ccccc1)C(=O)O; NMeβAla = CN(CCC(=O)[*:2])[*:1]; NMeD = CN[C@@H](CC(=O)O)C(=O)O; NMeL = CN[C@@H](CC(C)C)C(=O)O; dNMeV = CN[C@@H](C(=O)O)C(C)C; NMeV = CN[C@H](C(=O)O)C(C)C; d(β3hA) = C[C@@H](N)CC(=O)O; NMeAbu = CC[C@H](NC)C(=O)O; NMeA = CN[C@@H](C)C(=O)O; Piperidide = C1CCN(*)CC1; Abu = CC[C@H](N)C(=O)O; Sar = CNCC(=O)O; tBu = CC(C)(C)*

Assays:
[1] = Metabolic stability test: liver microsomal stability assay; assay type: in vitro ADME, mouse; conditions: mouse liver microsomes 0.5 mg protein/mL, compound 1 µM; for microsomal CLint at 1 µM: male, pH 7.4, presence of NADPH, read-out: Mouse Hepatic Microsome CLh,int NADPH(+); for Mouse Hepatic Microsome CLh,int NADPH(-): absence of NADPH
Protocol: Under the presence and absence of NADPH, a microsome solution prepared to a concentration of 0.5 mg protein/mL using 100 mM phosphate buffer (pH 7.4) with mouse liver microsomes (male, Corning Incorporated, USA) and the compound at a concentration of 1 µM were subjected to a metabolic reaction for 22 minutes, 44 minutes, or 66 minutes. Protein removal processing was performed over time using acetonitrile, and the remaining amount of unchanged compound was analyzed using LCMS to calculate the intrinsic hepatic clearance (CLh, int) (Table 6).

[2] = Membrane permeability test using Caco-2 cells with preincubation; assay type: in vitro ADME; conditions: Caco-2; preincubation 20 to 24 hours; Apical FaSSIF/HBSS pH 6.0, Basal HBSS 4% BSA pH 7.4; 180 minutes; read-out: Caco2 Papp
Protocol: (§1) The permeability coefficient (Caco-2 Papp (cm/sec)) is calculated using a numerical expression 1. [Expression 1] Papp = (1)/(C1 (0) × S) × (dQ)/(dt) [formula] dQ/dt represents the permeation rate of drug (the amount of drug appearing on the Basal side per unit time), S represents the total surface area of cells, and C1(0) represents the concentration of drug added on the Apical side.
(§2) Using a mixed medium of FaSSIF containing 1% DMSO and DMEM as the apical medium, and DMEM as the basal medium, Caco-2 cells and peptide compounds are preincubated for 20 to 24 hours under conditions of 5% CO2, 37°C, and 80 rpm. Afterward, the culture medium on the Apical side and the Basal side are aspirated and washed, the peptide compound was added to a FaSSIF/HBSS buffer solution containing 1% DMSO (1% DMSO) (pH 6.0) at the Apical side, a HBSS buffer solution containing 4% BSA (pH 7.4) was added to the Basal side, and measurement of membrane permeability is started. Each well is shaken under 5% CO2 at 37°C and 80 rpm, and at 180 minutes after the start of shaking, a sample on the Basal side is collected. The amount of peptide compounds in the sample was measured using LCMS, and the membrane permeability coefficient was calculated from the permeation amount (Table 7). When calculating the membrane permeability coefficient (Papp) from the permeation amount, the following expression can be used. Papp = (dQ)/(dt) × (1)/(C1 (0) × S) [formula]
(§3) dQ/dt represents the permeation rate of drug (the amount of drug appearing on the Basal side per unit time), C1(0) represents the concentration of drug added on the Apical side, and S represents the total surface area of cells.

[3] = system: Caco-2 cells; test: as above; assay type: in vitro ADME; conditions: Caco-2 cells, preincubation 20 to 24 hours; apical FaSSIF/HBSS 1% DMSO pH 6.0, basal HBSS 4% BSA pH 7.4; basal sample at 180 minutes
Protocol: as §1, §2, §3

| microsomal CLint at 1 µM [1] [µL/min/mg] | Mouse Hepatic Microsome CLh,int NADPH(-) [1] [µL/min/mg Protein] | Papp A→B [2] [×10⁻⁶ cm/s] | Caco2 Papp (10^-6 cm/sec) [3] | SMILES |
| --- | --- | --- | --- | --- |
| 31.7 | 33.9 | 0.71 | 0.71 10^-6 cm/sec | CC[C@H](C)[C@@H]1NC(=O)[C@H](CC(C)C)N(C)C(=O)[C@H](CC(C)C)NC(=O)CCN(C)C(=O)C[C@@H](C)N(C)C(=O)CN(C)C(=O)[C@H](CC(C)C)N(C)C(=O)[C@@H]2CCCN2C(=O)[C@H](CC(C)C)N(C)C(=O)[C@H](COC(C)(C)C)NC(=O)[C@H]([C@@H](C)CC)N(C)C(=O)[C@H](CCc2ccccc2)NC(=O)[C@H](Cc2ccccc2)N(C)C1=O [pd142] (cyclo(I[NMeF][hPhe][NMeI]S(tBu)[NMeL]P[NMeL][Sar][NMedβ3hAla][NMeβAla]L[NMeL])) |
| 34.2 | 29.6 | 0.94 | 0.94 10^-6 cm/sec | CC[C@H](C)[C@H]1C(=O)N[C@@H](Cc2ccccc2)C(=O)N2CCC[C@H]2C(=O)N(C)[C@@H](CC(C)C)C(=O)N[C@@H](COC(C)(C)C)C(=O)N(C)[C@@H](Cc2ccccc2)C(=O)N[C@@H]([C@@H](C)O)C(=O)N(C)[C@@H](CC)C(=O)N2CCC[C@H]2C(=O)N(C)[C@@H](CC(C)C)C(=O)N(C)[C@@H](C(C)C)C(=O)N[C@H](C(=O)N2CCCCC2)CC(=O)N(C)CCCC(=O)N(C)[C@@H](CC(C)C)C(=O)N1C [pd001] ([NMeGABA][NMeL][NMeI]FP[NMeL]S(tBu)[NMeF]T[NMeAbu]P[NMeL][NMeV]D-Piperidide; lactam N-14) |
| 16.7 | 18.1 | 0.13 | 0.13 10^-6 cm/sec | CC[C@H](C)[C@H]1C(=O)N(C)[C@@H]([C@@H](C)O)C(=O)N(C)[C@@H](CC)C(=O)N(C)[C@@H](CC(C)C)C(=O)N2CCC[C@H]2C(=O)N[C@H](C(=O)N2CCCCC2)CC(=O)N(C)[C@@H](C)C(=O)N[C@@H](CC(C)C)C(=O)N(C)[C@@H](CC(C)C)C(=O)N(C)[C@@H](C)C(=O)N2CCC[C@H]2C(=O)N[C@@H](CCc2ccccc2)C(=O)N(C)[C@@H](CC(C)C)C(=O)N1C [pd125] ([NMeA]L[NMeL][NMeA]P[hPhe][NMeL][NMeI][NMeT][NMeAbu][NMeL]PD-Piperidide; lactam N-13) |
| 35.9 | 33.0 | 0.23 | 0.23 10^-6 cm/sec | CC[C@@H]1NC(=O)[C@H](Cc2ccccc2)N(C)C(=O)[C@H]([C@@H](C)O)NC(=O)[C@H](CC(C)C)N(C)C(=O)[C@H](C)N(C)C(=O)C[C@@H](C(=O)N2CCCCC2)N(C)C(=O)[C@H](CC(C)C)N(C)C(=O)[C@H]([C@@H](C)CC)N(C)C(=O)CN(C)C(=O)[C@H](CC(C)C)NC(=O)[C@H](Cc2ccccc2)N(C)C(=O)[C@H](CC(C)C)N(C)C(=O)[C@H]([C@@H](C)CC)N(C)C1=O [pd167] ([NMeA][NMeL]T[NMeF][Abu][NMeI][NMeL][NMeF]L[Sar][NMeI][NMeL][NMeD]-Piperidide; lactam N-13) |
| 39 | 37.8 | 0.21 | 0.21 10^-6 cm/sec | CC[C@H](C)[C@@H]1NC(=O)[C@H](CC(C)C)N(C)C(=O)[C@H](CC(C)C)N(C)C(=O)[C@H](C)N(C)C(=O)C[C@@H](C(=O)N2CCCCC2)N(C)C(=O)[C@H](C)N(C)C(=O)[C@H](CC(C)C)NC(=O)[C@H](C(C)C)N(C)C(=O)[C@H](CC(C)C)N(C)C(=O)CNC(=O)[C@H]([C@@H](C)CC)N(C)C(=O)[C@H](Cc2ccccc2)N(C)C(=O)[C@H](C)NC(=O)[C@H](Cc2ccccc2)N(C)C1=O [pd084] ([NMeA][NMeL][NMeL]I[NMeF]A[NMeF][NMeI]G[NMeL][NMeV]L[NMeA][NMeD]-Piperidide; lactam N-14) |
| 39 | 39.7 | 0.51 | 0.51 10^-6 cm/sec | CC[C@H](C)[C@@H]1NC(=O)[C@H](CC(C)C)N(C)C(=O)C[C@@H](C)NC(=O)[C@H](C(C)C)N(C)C(=O)[C@H](COC(C)(C)C)NC(=O)[C@H](CC)N(C)C(=O)[C@H](Cc2ccccc2)N(C)C(=O)[C@H](CC(C)C)NC(=O)[C@@H]2CCCN2C(=O)[C@H]([C@@H](C)O)N(C)C(=O)[C@H](CC(C)C)N(C)C(=O)[C@H](CC)N(C)C(=O)[C@H](C(C)C)N(C)C(=O)[C@H](CC(C)C)N(C)C1=O [pd061] (cyclo(I[NMeL][NMeV][NMeAbu][NMeL][NMeT]PL[NMeF][NMeAbu]S(tBu)[NMeV][d(β3hA)][NMeL])) |

Further lines, the compound ahead of its results:

| SMILES | microsomal CLint at 1 µM [1] [µL/min/mg] | Mouse Hepatic Microsome CLh,int NADPH(-) [1] [µL/min/mg Protein] | Papp A→B [2] [×10⁻⁶ cm/s] | Caco2 Papp (10^-6 cm/sec) [3] |
| --- | --- | --- | --- | --- |
| CC[C@@H]1NC(=O)[C@H](Cc2ccccc2)N(C)C(=O)[C@@H]2CCCN2C(=O)[C@H](CC(C)C)N(C)C(=O)[C@H](C(C)C)NC(=O)[C@H](CC(C)C)N(C)C(=O)[C@H]([C@@H](C)O)NC(=O)[C@H](Cc2ccccc2)N(C)C(=O)CN(C)C(=O)C[C@@H](C)N(C)C(=O)[C@H](C(C)C)NC(=O)[C@H](COC(C)(C)C)NC(=O)[C@H](C)N(C)C1=O [pd146] (cyclo([Abu][NMeA]S(tBu)V[NMedβ3hAla][Sar][NMeF]T[NMeL]V[NMeL]P[NMeF])) | 20.3 | 14.1 | 0.2 | 0.20 10^-6 cm/sec |
| CC[C@H](C)[C@@H]1NC(=O)[C@H](C)N(C)C(=O)[C@H]([C@@H](C)O)N(C)C(=O)[C@H](CC(C)C)N(C)C(=O)[C@H]([C@@H](C)CC)NC(=O)[C@H](Cc2ccccc2)N(C)C(=O)[C@H](Cc2ccccc2)N(C)C(=O)[C@H](C)NC(=O)[C@H](COC(C)(C)C)NC(=O)[C@H](CC)N(C)C(=O)[C@H](C(C)C)NC(=O)CCCN(C)C(=O)C[C@@H](C)NC(=O)[C@H](C(C)C)N(C)C1=O [pd050] (cyclo(A[NMeF][NMeF]I[NMeL][NMeT][NMeA]I[NMeV][d(β3hA)][NMeGABA]V[NMeAbu]S(tBu))) | 13.2 | 15.9 | 0.54 | 0.54 10^-6 cm/sec |
| CC[C@H](C)[C@@H]1NC(=O)[C@H](C)N(C)C(=O)[C@H]([C@@H](C)O)NC(=O)[C@H](Cc2ccccc2)N(C)C(=O)[C@H](COC(C)(C)C)NC(=O)[C@H](CC(C)C)N(C)C(=O)CN(C)C(=O)[C@H](Cc2ccccc2)N(C)C(=O)[C@H]([C@@H](C)CC)NC(=O)[C@H](CC(C)C)N(C)C(=O)CCN(C)C(=O)C[C@@H](C(=O)N2CCCCC2)NC(=O)[C@H](CC(C)C)N(C)C1=O [pd110] ([NMeβAla][NMeL]I[NMeF][Sar][NMeL]S(tBu)[NMeF]T[NMeA]I[NMeL]D-Piperidide; lactam N-13) | 38.5 | 30.5 | 0.43 | 0.43 10^-6 cm/sec |
| CC[C@@H]1NC(=O)[C@H](CC(C)C)N(C)C(=O)[C@H]([C@@H](C)CC)NC(=O)CN(C)C(=O)C[C@@H](C)NC(=O)[C@H](C(C)C)N(C)C(=O)[C@H](COC(C)(C)C)NC(=O)[C@H](CC(C)C)N(C)C(=O)[C@H](C)NC(=O)[C@H](Cc2ccccc2)N(C)C(=O)[C@H](CC(C)C)NC(=O)CN(C)C(=O)[C@H]([C@@H](C)O)NC(=O)[C@H](CC(C)C)N(C)C1=O [pd010] (cyclo(A[NMeL]S(tBu)[NMeV][d(β3hA)][Sar]I[NMeL][Abu][NMeL]T[Sar]L[NMeF])) | 59.7 | 27.8 | 0.72 | 0.72 10^-6 cm/sec |
| CC(C)C[C@@H]1NC(=O)[C@H](C(C)C)N(C)C(=O)[C@H](Cc2ccccc2)N(C)C(=O)[C@H](CC(C)C)NC(=O)[C@H](CC(C)C)N(C)C(=O)[C@H](C)N(C)C(=O)[C@H]([C@@H](C)O)NC(=O)[C@H](CC(C)C)N(C)C(=O)[C@H](C(C)C)N(C)C(=O)[C@H](CC(C)C)NC(=O)[C@H](Cc2ccccc2)N(C)C(=O)[C@@H](C(C)C)N(C)C(=O)C[C@@H](C(=O)N2CCCCC2)NC1=O [pd108] ([dNMeV][NMeF]L[NMeV][NMeL]T[NMeA][NMeL]L[NMeF][NMeV]LD-Piperidide; lactam N-13) | 39.9 | 35.5 | 0.03 | 0.03 10^-6 cm/sec |
